# Measured values as given in EP2017288A1, “Protease stabilized, pegylated insulin analogues” (NOVO NORDISK A/S, priority 2007, dated 2009).
# Test: Pulmonary delivery to rats (intratracheal drop instillation)
# Assay type: in vivo, male Wistar rats
# Settings: statement in words; Fig. 1 is a rat intratracheal drop instillation of the insulin of example 1
# Method: The test substance will be dosed pulmonary by the drop instillation method. In brief, male Wistar rats (app.250 g) are anaesthesized in app. […] fentanyl/dehydrodenzperidol/-dormicum given as a 6.6 ml/kg sc primingdose and followed by 3 maintainance doses of 3.3 ml/kg sc with an interval of 30 min. Ten minutes after the induction of anaesthesia, basal samples are obtained from the tail vein (t = -20 min) followed by a basal sample immediately prior to the dosing of test substance (t=0). At t=0, the test substance is dosed intra tracheally into one lung. A special cannula with rounded ending is mounted on a syringe containing the 200 ul air and test substance (1 ml/kg). Via the orifice, the cannula is introduced into the trachea and is forwarded into one of the main bronchi -just passing the bifurcature. During the insertion, the neck is palpated from the exterior to assure intratracheal positioning. The content of the syringe is injected followed by 2 sec pause. Thereafter, the cannula is slowly drawn back. The rats are kept anaesthesized during the test (blood samples for up to 4 or 8 hrs) and are euthanized after the experiment.
substance,measurement,value
"A14E, B25H, B29K(N^ε-3-mdPEG24-Propionyl), desB30 human insulin [Example 1]",pulmonary efficacy,substantial protracted pulmonary efficacy
